The target in assay [1] is T1, Transient receptor potential cation channel subfamily V member 1 (Homo sapiens, UniProt Q8NER1). The assay is described as follows: Inhibition of capsaicin-induced calcium uptake by transient receptor potential vanilloid type 1 expressed in CHO cells. Type of assay: functional, cell-based.
Assay [2] addresses T1, Transient receptor potential cation channel subfamily V member 1. In words: Inhibition of pH-induced calcium uptake by transient receptor potential vanilloid type 1 expressed in CHO cells. Type of assay: functional, cell-based.

Molecules are shown by their SMILES. pIC50: −log10 of the molar value.

T1 sequence (Q8NER1 whole entry): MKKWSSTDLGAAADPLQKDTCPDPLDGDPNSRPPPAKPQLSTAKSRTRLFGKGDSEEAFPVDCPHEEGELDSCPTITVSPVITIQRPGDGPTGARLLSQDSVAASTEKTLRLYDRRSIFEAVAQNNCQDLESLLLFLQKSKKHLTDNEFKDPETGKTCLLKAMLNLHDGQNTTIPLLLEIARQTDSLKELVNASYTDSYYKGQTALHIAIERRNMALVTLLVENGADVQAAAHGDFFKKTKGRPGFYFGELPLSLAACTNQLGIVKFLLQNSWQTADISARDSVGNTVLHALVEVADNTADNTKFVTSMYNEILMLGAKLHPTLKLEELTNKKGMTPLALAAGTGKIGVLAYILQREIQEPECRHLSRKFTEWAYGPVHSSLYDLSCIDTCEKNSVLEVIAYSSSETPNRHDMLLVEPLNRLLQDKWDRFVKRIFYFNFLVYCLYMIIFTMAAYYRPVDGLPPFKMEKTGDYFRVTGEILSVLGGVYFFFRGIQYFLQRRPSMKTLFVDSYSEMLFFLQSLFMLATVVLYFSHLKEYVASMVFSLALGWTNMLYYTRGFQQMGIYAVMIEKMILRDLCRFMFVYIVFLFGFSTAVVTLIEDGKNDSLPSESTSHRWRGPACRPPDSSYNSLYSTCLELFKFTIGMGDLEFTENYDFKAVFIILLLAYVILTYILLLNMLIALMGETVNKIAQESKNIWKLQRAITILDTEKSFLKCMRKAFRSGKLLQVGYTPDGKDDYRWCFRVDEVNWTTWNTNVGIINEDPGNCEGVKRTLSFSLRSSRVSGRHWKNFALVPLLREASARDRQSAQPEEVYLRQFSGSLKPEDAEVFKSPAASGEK

In general, pIC50 refers to −log10 of the IC50, conventionally taken in molar units. `O=C(/C=C/c1ccc([N+](=O)[O-])cc1)Nc1ccc2c(c1)OCCO2`: the pIC50 in assay [1] was 6.72; in assay [2] it was 6.36.
Taken in the same sequence, the figures for `O=C(/C=C/c1ccc(O)cc1)Nc1ccc2c(c1)OCCO2` were less than 5.40 and less than 5.40.
Taken in the same sequence, the figures for `CCCCc1ccc(/C=C/C(=O)Nc2ccc3c(c2)OCCO3)cc1` were 6.44 and 5.57.
In the same order, the values of `CC(C)(C)c1ccc(C(=CC(=O)Nc2ccc3c(c2)OCCO3)c2ccc(C(C)(C)C)cc2)cc1` are 5.57 and less than 5.40.
With `CC(C)Cc1ccc(/C=C/C(=O)Nc2ccc3c(c2)OCCO3)cc1`, the pIC50 in assay [1] was 6.44; in assay [2], 6.07.
In the same order, the values of `Cc1nc(C(F)(F)F)ccc1/C=C/C(=O)Nc1ccc2c(c1)OCCO2` are 6.44 and 6.06.
In the same order, the values of `O=C(/C=C/c1ccc(Cl)cc1)Nc1ccc2c(c1)OCCO2` are 6.60 and 6.49.
In the same order, the values of `O=C(/C=C/c1ccc(F)cc1)Nc1ccc2c(c1)OCCO2` are 6.00 and less than 5.40.
Consider `O=C(/C=C/c1ccc(Br)cc1)Nc1ccc2c(c1)OCCO2`, for which the pIC50 in assay [1] was 6.96; in assay [2], 6.43.
As to `CC(C)(C)c1ccc(/C=C/C(=O)Oc2ccc3c(c2)OCCO3)cc1`, in assay [2], the pIC50 was 5.49.
Take `CC(C)(C)c1cccc(/C=C/C(=O)Nc2ccc3c(c2)OCCO3)c1`: the pIC50 was 6.21 in assay [1] and less than 5.40 in assay [2].
In the same order, the values of `CC(C)(C)c1ccc(/C=C/C(=O)Nc2ccc3c(c2)OCCO3)nc1` are 6.30 and 5.54.
In the same order, the values of `O=C(/C=C/c1ccc(C(F)(F)F)nc1)Nc1ccc2c(c1)OCCO2` are 6.06 and 5.89.
Taken in the same sequence, the figures for `CC(C)(C)c1ccc(/C=C/C(=O)Nc2ccc3c(c2)OCCO3)c(C(=O)O)c1` were less than 5.40 and less than 5.40.
For `CC(C)(C)c1ccc(/C=C/C(=O)Nc2ccc3cccnc3c2)cc1`, the pIC50 in assay [2] is 8.69.
As for `COc1ccc(/C=C/C(=O)Nc2ccc3c(c2)OCCO3)cc1`, the pIC50 in assay [1] was 5.74; in assay [2] it was less than 5.40.
Taken in the same sequence, the figures for `CC(C)(C)c1ccc(/C=C/C(=O)Nc2ccc3c(c2)OCCO3)c(Br)c1` were 7.22 and 6.33.
As to `CC(C)(C)c1ccc(/C=C/C(=O)Nc2ccc3c(c2)NC(=O)CC3)cc1`, the pIC50 in assay [2] is 7.15.
For `CCOC(=O)c1cc(C(C)(C)C)ccc1/C=C/C(=O)Nc1ccc2c(c1)OCCO2`, the pIC50 was 7.82 in assay [1] and 7.59 in assay [2].
For the molecule `C/C(=C\C(=O)Nc1ccc2c(c1)OCCO2)c1ccc(C(C)(C)C)cc1`, in assay [2], the pIC50 is 6.37.
The same measure, in the same setting: then `COc1ccc(NC(=O)/C=C/c2ccc(C(C)(C)C)cc2)cc1O`, with less than 5.40.
For `CC(C)(C)c1ccc(/C=C/C(=O)Nc2ccc3c(c2)OCCO3)cn1`, the pIC50 is 7.00 in assay [1] and 5.62 in assay [2].
In the same order, the values of `O=C(/C=C/c1ccc(-c2ccccc2)cc1)Nc1ccc2c(c1)OCCO2` are less than 5.40 and less than 5.40.
In the same order, the values of `O=C(/C=C/c1ccc(C(F)(F)F)cc1)Nc1ccc2c(c1)OCCO2` are 7.34 and 7.00.
Take `C/C(=C\c1ccc(C(C)(C)C)cc1)C(=O)Nc1ccc2c(c1)OCCO2`: the pIC50 in assay [2] is 6.22.
Regarding `CC(C)(C)c1ccc(/C=C/C(=O)Nc2ccccc2)cc1`, the negative-log IC50 (pIC50) in assay [2] was less than 5.40.
With `CC(C)c1ccc(/C=C/C(=O)Nc2ccc3c(c2)OCCO3)cc1`, the pIC50 was 7.26 in assay [1] and 7.09 in assay [2].
Taken in the same sequence, the figures for `O=C(/C=C/c1ccc(C(F)(F)F)nc1N1CCOCC1)Nc1ccc2c(c1)OCCO2` were 7.82 and 7.40.
Turning to `CC(C)(C)c1ccc(/C=C/C(=O)Nc2ccc3c(c2)OCCO3)cc1` (stereo in doubt; 34), in assay [2], the pIC50 was 5.49.
For the molecule `Oc1cc2c(cc1O)CN(C(=S)NCCc1ccc(Cl)cc1)CCC2` [CAPSAZEPINE], the pIC50 in assay [1] is 6.38.

The record behind these values is ChEMBL document CHEMBL1139498, “Discovery of potent, orally available vanilloid receptor-1 antagonists. Structure-activity relationship of N-aryl cinnamides” (J Med Chem, 2005).
